Data as given in patent US11422132B2, “Peptides and uses thereof for diagnosing and treating myasthenia gravis” (The Regents of the University of California, priority 2016, dated 2022).
“Also recorded” adds a separate entry of the source. Where no end group is shown, it is not given here.

Experiments:
mAb 198 [1] = experiment: Western blot of peptide-IChBD fusion proteins probed with mAb 198; format: binding, rat; conditions: for mAb 198 binding, result in words: Western blot; for mAb 198 binding compared to its binding to the human 39MIR: human 39MIR mutants, relative to human 39MIR
Source text: (§1) Chitin beads adsorbed with peptide-IChBD fusion proteins were run on an SDS-PAGE gel and transferred to a nitrocellulose membrane and assayed with the four mAbs.
(§2) Chitin beads adsorbed with peptide-IChBD fusion proteins were run on an SDS-PAGE gel and transferred to a nitrocellulose membrane and assayed with the five mAbs.
The Torpedo (SEQ ID NO:9) and human (SEQ ID NO:8) 39MIRs were made by joining the α(1-12), α(65-79), and α(110-115) segments of their respective a subunits with GS linkers. These two MIR mimics were expressed in E. coli as fusion proteins with an IChBD tag to permit peptide collection on chitin beads. These two peptides differ from each other by eight amino acids (FIG. 2). Both mimics were probed with mAb 198. mAb 198, which was derived from rats that had been immunized with human muscle AChR, is a MIR-directed mAb that binds mammalian as well as Torpedo MIR (13,21). It was also able to passively transfer EAMG to rats and binds to both native assembled AChR and to α-subunit fragments in Western blots (22,23). mAb 198 binds to the Torpedo and human MIR peptide mimics in Western blots (FIG. 3). However, mAb 198 binds to the Torpedo mimic about 50 times more strongly than to the human MIR mimic (FIG. 3).
(§3) To explore the effects of individual amino acid substitutions between the Torpedo and the human AChR MIR mimics, eight peptides were prepared, each with an amino acid substituted from the human sequence into the Torpedo sequence. The single amino acid substitutions in the Torpedo MIR were: N10K (SEQ ID NO:11), L12F (SEQ ID NO:12), R66K (SEQ ID NO:13), A70D (SEQ ID NO:14), I75V (SEQ ID NO:15), R79H (SEQ ID NO:16), D111Q (SEQ ID NO:17), and K115H (SEQ ID NO:18).

mAb 35 [2] = experiment: Western blot of peptide-IChBD fusion proteins probed with mAb 35; format: binding, rat; design: key to mAb 35, fold-change in binding relative to Torpedo 39MIR: ‘—’ denotes no binding; conditions: for mAb 35 binding compared to the Torpedo 39 MIR: human 39MIR triple and quadruple mutants, FIG. 7
mAb 35 [3] = experiment: as above; format: binding, rat; conditions: for mAb 35 binding, result in words: Western blot
Procedure: as §1, §2, §3

mAb 132A [4] = experiment: Western blot of peptide-IChBD fusion proteins probed with mAb 132A; format: binding, rat; conditions: for mAb 132A binding, result in words: Western blot
Procedure: as §1, §2, §3

mAb 132A [5] = experiment: as above; format: binding, rat; design: key to mAb 132A, fold-change in binding relative to Torpedo 39MIR: ‘—’ denotes no binding; conditions: for mAb 132A binding compared to the Torpedo 39 MIR: human 39MIR triple and quadruple mutants, FIG. 7
[6] = test system: antibodies in human MG serum samples; experiment: Dot blot of His-tagged peptides against human MG serum samples; format: binding
Source text: Sample were obtained from either normal subjects (i.e., without a diagnosis of myasthenia gravis (MG)) or subjects diagnosed with MG. Samples were contacted with the Torpedo 39MIR peptide (SEQ ID NO:9), the human 39MIR peptide (SEQ ID NO:8), the K10N/V75I/[…] human 39MIR triple mutant (SEQ ID NO:26), or the K10N/D70A/V75I/Q111D human 39MIR quadruple mutant (SEQ ID NO:27).
His-tagged variants of the Torpedo 39MIR, human 39MIR, […] triple mutant, and K10N/D70A/V75I/Q111D quadruple mutant peptides were expressed and probed for binding to antibodies in human MG serum samples. The peptides were dot-blotted onto a membrane and probed for binding to antibodies in our human MG serum library. […] None of the His-tagged peptides bound any antibodies in normal human serum samples (FIG. 11). Although the triple mutant peptide (SEQ ID NO:26) bound better overall to mAb 35, mAb 132A, and mAb 198, the quadruple mutant peptide (SEQ ID NO:27) was better for binding antibodies in MG sera.

[7] = test system: MIR directed Abs in EAMG sera; conditions: reference 14; cited from earlier work
mAb 132A [8] = conditions: IChBD fusion; reference 14; read-out: Kd of complex with mAb 132A; cited from earlier work
mAb 334 = experiment: Western blot of peptide-IChBD fusion proteins probed with mAb 334; format: binding, rat; conditions: Table 1, Western blot of FIG. 5, Torpedo 39MIR single mutants
Procedure: as §2, §3

mAb 198 [9] = experiment: Western blot of peptide-Fc conjugates with mAb 198; format: binding, rat; conditions: Western blot FIG. 13
Source text: (§4) A conjugate has been engineered (FIG. 12B) that fuses the chimeric Torpedo-human peptide (SEQ ID NO:27) to an antibody Fc domain.

mAb 132A [10] = experiment: Western blot of peptide-Fc conjugates with mAb 132A; format: binding, rat; conditions: Western blot FIG. 13
Source text: as §4

[11] = Table 2, Western blot of FIG. 7, human 39MIR multiple mutants
[12] = Table 1, Western blot of FIG. 5, Torpedo 39MIR single mutants
[13] = Table 3, single-substitution human 39MIR mutants

Substance | mAb 198, fold-change in binding relative to Torpedo 39MIR (mAb 198 [1]; [11]) [fold-change] | mAb 198 binding, result in words (mAb 198 [1]) | mAb 35, fold-change in binding relative to Torpedo 39MIR (mAb 35 [2]; [11]) | mAb 35 binding, result in words (mAb 35 [3]) | mAb 132A binding, result in words (mAb 132A [4]) | mAb 132A, fold-change in binding relative to Torpedo 39MIR (mAb 132A [5]; [11]) | binding to antibodies in human MG serum samples ([6]; FIG. 11) | other results
SEHETRLVANLFGGGSLKWNPDDYGGIKKIHGSLQYTGH (synthetic main immunogenic region (MIR) peptide) [K10N/V75I, Human 39MIR double mutant (K10N/V75I)] | 1.79 | restored binding | 1.10 fold-change | restored binding | restored binding | 1.25 fold-change |  | 
SEHETRLVANLFGGGSLKWNPDDYGGVKKIHGSLDYTGH (synthetic main immunogenic region (MIR) peptide) [K10N/Q111D, Human 39MIR double mutant (K10N/Q111D)] | 1.19 | restored binding | 2.31 fold-change | restored binding | restored binding | 1.07 fold-change |  | 
SEHETRLVANLFGGGSLKWNPADYGGIKKIHGSLDYTGH (synthetic main immunogenic region (MIR) peptide) [K10N/D70A/V75I/Q111D, Human 39MIR quadruple mutant (K10N/D70A/V75I/Q111D)] | 0.99 |  | 1.70 fold-change |  |  | 0.99 fold-change | bound antibodies in the human sera | mAb 198 binding compared to its binding to the human 39MIR (mAb 198 [1]): 11 ×; mAb 35 binding compared to the Torpedo 39 MIR (mAb 35 [2]): 1.70 ×; mAb 132A binding compared to the Torpedo 39 MIR (mAb 132A [5]): 0.99 ×; binding to antibodies in human MG serum samples ([6]; FIG. 11, listed as SEQ ID NO:27): a fraction of Abs in MG patient sera; binding to antibodies in human MG serum samples ([6]; FIG. 11, listed as quadruple mutant peptide): able to bind antibodies in all of our human MG serum samples
SEHETRLVANLLGGGSLRWNPADYGGIKKIRGSLDYTGK [Torpedo 39MIR] | 1.00 | binds; also recorded: able to bind | 1.00 fold-change |  |  | 1.00 fold-change | did not bind any antibodies | mAb 198, fold-change in binding relative to Torpedo 39MIR (mAb 198 [1]; [12]): 1.00 fold-change; mAb 198, fold-change in binding relative to Torpedo 39MIR (mAb 198 [1]; [13]): 1.00 fold-change; mAb 198 binding to the Torpedo mimic versus the human MIR mimic (mAb 198 [1]; Western blot FIG. 3, more strongly than to the human MIR mimic): about 50 times; mAb 35, fold-change in binding relative to Torpedo 39MIR (mAb 35 [2]; [13]): 1.00 fold-change; adsorption of MIR directed Abs in EAMG sera that block the binding of biotinylated mAb 132A to the Torpedo AChR [7]: able to adsorb all of the MIR directed Abs in EAMG sera; mAb 35, fold-change in binding relative to Torpedo 39MIR (mAb 35 [3]; [12]): 1.00 fold-change; Kd (mAb 132A [8]): 0.21 nM; mAb 132A, fold-change in binding relative to Torpedo 39MIR (mAb 132A [4]; [12]): 1.00 fold-change; mAb 334, fold-change in binding relative to Torpedo 39MIR (mAb 334): 1.00 fold-change; mAb 132A, fold-change in binding relative to Torpedo 39MIR (mAb 132A [5]; [13]): 1.00 fold-change
Torpedo peptide-Fc conjugate: Torpedo 39MIR peptide (SEQ ID NO:9) conjugated to a human IgG antibody Fc domain plus hinge (SEHETRLVANLLGGGSLRWNPADYGGIKKIRGSLDYTGK; also: conjugated to human IgG Fc with hinge) |  |  |  |  |  |  |  | binding of mAb 198 to peptide-Fc conjugate (mAb 198 [9]): did not bind; binding of mAb 132A to peptide-Fc conjugate (mAb 132A [10]): did not bind
SEHETRLVAKLFGGGSLKWNPDDYGGIKKIHGSLDYTGH (synthetic main immunogenic region (MIR) peptide) [V75I/Q111D, Human MIR double mutant (V75I/Q111D)] | 2.71 | restored binding | 0.92 fold-change | restored binding | restored binding | 3.34 fold-change |  | 
SEHETRLVAKLFGGGSLKWNPDDYGGVKKIHGSLQYTGH (synthetic main immunogenic region (MIR) peptide) [Human 39MIR] | 0.09 | binds; also recorded: recognized; also recorded: able to bind | — | does not bind; also recorded: not recognized; also recorded: did not bind | does not bind; also recorded: not recognized; also recorded: did not bind | — | did not bind any antibodies | mAb 198, fold-change in binding relative to Torpedo 39MIR (mAb 198 [1]; [13]): 0.02 fold-change; mAb 35, fold-change in binding relative to Torpedo 39MIR (mAb 35 [2]; [13]): —; mAb 132A, fold-change in binding relative to Torpedo 39MIR (mAb 132A [5]; [13]): —
SEHETRLVANLFGGGSLKWNPDDYGGIKKIHGSLDYTGH (synthetic main immunogenic region (MIR) peptide) [K10N/V75I/Q111D, Human 39MIR triple mutant (K10N/V75I/Q111D)] | 2.52 | improved binding | 2.97 fold-change | improved binding |  | 2.46 fold-change | only bound antibodies in one MG serum sample | mAb 198 binding compared to its binding to the human 39MIR (mAb 198 [1]): 28 ×; mAb 198 binding compared to the Torpedo 39 MIR (mAb 198 [1]; human 39MIR triple mutant, FIG. 7): 2.52 ×; mAb 35 binding compared to the Torpedo 39 MIR (mAb 35 [2]): 2.97 ×; mAb 132A binding compared to the Torpedo 39 MIR (mAb 132A [5]): 2.46 ×; binding to antibodies in human MG serum samples ([6]; FIG. 11, listed as K10N/N75I/Q111D): bound antibodies in the human sera
